What was measured:
[1] = system: HR+/HER2− metastatic breast cancer; experiment: Antitumor activity by RECIST version 1.1; type: in vivo, human; conditions: for Objective response (CR + PR; pts with HR+/HER2− breast cancer with measurable disease at baseline and prior CDK4/6i): 40 such pts
Experimental: Antitumor activity was assessed through radiological tumor assessments conducted at baseline, during treatment, whenever disease progression was suspected (e.g., symptomatic deterioration), and at the time of withdrawal from treatment (if not done in the previous 8 weeks). Responses were assessed using RECIST version 1.1.
DLT was the primary endpoint of the study, summarized by dose level using the per-protocol analysis set for patients in the dose escalation portion of the study. Efficacy analysis was summarized by dose cohorts for part 2 of the study. For part 1, no formal efficacy analysis was presented. For part 2, tumor response was presented in the form of patient data listings that included, but were not limited to, tumor type, starting dose, tumor response at each visit, and best overall response. In addition, progression date, death date, date of first response, last tumor assessment date, and date of last contact were listed. ORR, PFS, overall survival, TTP, and DoR were summarized and presented as data permitted. For response-based metrics (best overall response, ORR, and DoR), analyses were presented on the basis of confirmed responses. Analyses of PFS and TTP were defined as the time from the date of the first dose. Summaries of the number and percentage of patients with PFS and TTP and data listings by tumor type and dose were generated based on data availability. The 95% confidence intervals (CI) for medians and quartiles were generated based on the Brookmeyer–Crowley method, whereas CIs for the estimated probability of an event at a particular time point were generated using the Greenwood formula. DoR was summarized with the number of responders, the number and percentage of events/censorship, mean, standard deviation, and minimum, maximum, and median duration in units of months. ORR was summarized by the number of patients meeting respective criteria as a percentage. The 95% CIs were generated for PFS, TTP, and ORR based on available data.

[2] = target: CDK4; parameters: method as in PMID 34110834; conditions: cited from earlier work
[3] = system: ctDNA; experiment: ctDNA molecular response (Guardant360, meanVAF change); type: in vivo, human; conditions: plus fulvestrant; for Median ctDNA molecular response: combined parts 2A and 2C; for Median change in ctDNA meanVAF: cycle 1 day 15 from cycle 1 day 1
Experimental: Plasma samples were collected at cycle 1 day 1, cycle 1 day 15, and the end of treatment (EOT). Genomic alterations in ctDNA were detected using the next-generation sequencing–based 74-gene Guardant360 platform (Guardant Health). ctDNA molecular response between the two samples was determined as described by Mack and colleagues ([9]). Briefly, after subtracting germline variants and potential clonal hematopoiesis of indeterminate potential, the mean variant allele frequency (meanVAF) of somatic variants (including single-nucleotide variants, insertions and deletions, and fusions) with a mutant molecular count above a proprietary threshold was calculated for each sample by averaging the VAFs of all variants detected among the two samples. The relative change of meanVAF of the posttreatment sample from the baseline sample was then calculated as the ctDNA molecular response. Samples lacking somatic variants with sufficient mutant molecular counts or the absence of any somatic alterations at both time points were considered ctDNA low and not evaluable for molecular response.

[4] = system: phosphorylated Rb (pRb); experiment: IHC of pRb (H-score) in paired tumor biopsies; type: in vivo, human
Experimental: (§1) The pharmacodynamic effects of PF-06873600 were assessed by IHC staining of pRb and Ki67 in tumor biopsy samples collected at screening and day 1 of cycle 2 (4 hours after dose). Immunostaining was performed on […] formalin-fixed, paraffin-embedded tissue sections using rabbit monoclonal anti-Rb (Ser807/811) antibody (clone D20B12, Cell Signaling Technology) and rabbit monoclonal anti-Ki67 antibody (Ventana Medical Systems), respectively. pRb and Ki67 expressions were assessed semiquantitatively by a board-certified pathologist. Scoring was performed using the percentage of cells positive for Ki67 or a histo-score (H-score) methodology for pRb based on staining intensity and the percentage of positive cells. Intensity was scored as 0, none; 1, weak; 2, moderate; or 3, strong, and H-scores were calculated as follows: H-score = [fraction of cells with intensity grade 1 (%)] + [fraction of cells with intensity grade 2 (%) × 2] + [fraction of cells with intensity grade 3 (%) × 3].

[5] = target: CDK1; parameters: method as in PMID 34110834; conditions: cited from earlier work
[6] = system: Ki67; experiment: IHC of Ki67 in paired tumor biopsies; type: in vivo, human
Experimental: as §1

[7] = Part 2A 25 mg twice daily IR + Fulvestrant, n = 45, response-evaluable set
[8] = Part 2C 25 mg twice daily IR + Fulvestrant, n = 22, response-evaluable set
[9] = Part 2 total (2A + 2C, + Fulvestrant), N = 67
[10] = IR 25 mg twice daily monotherapy, cycle 2 day 1, HR+/HER2− mBC tumor biopsies
[11] = IR 25 mg twice daily/fulvestrant combination, cycle 2 day 1

Structure (SMILES): C[C@@]1(O)CCC[C@H]1n1c(=O)c(C(F)F)cc2cnc(NC3CCN(S(C)(=O)=O)CC3)nc21 [PF-06873600]
- Objective response (CR + PR; pts with HR+/HER2− breast cancer with measurable disease at baseline and prior CDK4/6i) ([1]; Part 2A 25 mg twice daily IR + Fulvestrant): 3 (7.5) n (%)
- Objective response (pts with HR+/HER2− breast cancer with measurable disease at baseline) ([1]; Part 2A 25 mg twice daily IR + Fulvestrant, 44 such pts): 3 (6.8) n (%)
- Clinical benefit response (CR, PR, or ≥24 weeks stable disease) [1, 7]: 19 (42.2) n (%)
- Confirmed best overall response, CR [1, 7]: 0 n (%)
- Confirmed best overall response, NE (not evaluable) [1, 7]: 1 (2.2) n (%)
- Confirmed best overall response, Non-CR/non-PD [1, 7]: 0 n (%)
- Confirmed best overall response, PR [1, 7]: 3 (6.7) n (%)
- Confirmed best overall response, Progressive disease (PD) [1, 7]: 11 (24.4) n (%)
- Confirmed best overall response, Stable disease [1, 7]: 30 (66.7) n (%)
- Disease control (CR + PR + stable disease + non-CR/non-PD) [1, 7]: 33 (73.3) n (%)
- Objective response (CR + PR) [1, 7]: 3 (6.7) n (%)
- Objective response (pts with HR+/HER2− breast cancer with measurable disease at baseline) ([1]; Part 2C 25 mg twice daily IR + Fulvestrant, 20 such pts): 5 (25.0) n (%)
- Clinical benefit response (CR, PR, or ≥24 weeks stable disease) [1, 8]: 13 (59.1) n (%)
- Confirmed best overall response, CR [1, 8]: 0 n (%)
- Confirmed best overall response, NE (not evaluable) [1, 8]: 1 (4.5) n (%)
- Confirmed best overall response, Non-CR/non-PD [1, 8]: 1 (4.5) n (%)
- Confirmed best overall response, PR [1, 8]: 5 (22.7) n (%)
- Confirmed best overall response, Progressive disease (PD) [1, 8]: 2 (9.1) n (%)
- Confirmed best overall response, Stable disease [1, 8]: 13 (59.1) n (%)
- Disease control (CR + PR + stable disease + non-CR/non-PD) [1, 8]: 19 (86.4) n (%)
- Objective response (CR + PR) [1, 8]: 5 (22.7) n (%)
- Clinical benefit response (CR, PR, or ≥24 weeks stable disease) [1, 9]: 32 (47.8) n (%)
- Confirmed best overall response, CR [1, 9]: 0 n (%)
- Confirmed best overall response, NE (not evaluable) [1, 9]: 2 (3.0) n (%)
- Confirmed best overall response, Non-CR/non-PD [1, 9]: 1 (1.5) n (%)
- Confirmed best overall response, PR [1, 9]: 8 (11.9) n (%)
- Confirmed best overall response, Progressive disease (PD) [1, 9]: 13 (19.4) n (%)
- Confirmed best overall response, Stable disease [1, 9]: 43 (64.2) n (%)
- Disease control (CR + PR + stable disease + non-CR/non-PD) [1, 9]: 52 (77.6) n (%)
- Objective response (CR + PR) [1, 9]: 8 (11.9) n (%)
- Objective response (CR + PR; pts with HR+/HER2− breast cancer with measurable disease at baseline and prior CDK4/6i) ([1]; Part 2 total (+ Fulvestrant)): 3 (7.5) n (%)
- Objective response (pts with HR+/HER2− breast cancer with measurable disease at baseline) ([1]; Part 2 total (+ Fulvestrant), 64 such pts): 8 (12.5) n (%)
- Partial responses (PR), patients ([1]; part 1 dose escalation, 78 patients (parts 1A, 1B, 1C)): 3.8%
- Ki [2]: 1.25 nM
- Median ctDNA molecular response ([3]; EOT): 6%
- Median ctDNA molecular response ([3]; cycle 1 day 15): −60%
- Median change in ctDNA meanVAF ([3]; part 2A (28 evaluable)): −61%
- Median change in ctDNA meanVAF ([3]; part 2C (14 evaluable)): −54%
- Median change in pRb H-score from baseline [4, 10]: –16.5%
- Median percentage change in pRb H-score from baseline [4, 11]: –31.9%
- Ki [5]: 4.5 nM
- Median percentage change in Ki67-positive cells from baseline [6, 10]: –11.7%
- Median percentage change in Ki67-positive cells from baseline [6, 11]: –35.9%

From paper PMC12260505, “First-in-Human Phase I/IIa Study of the First-in-Class CDK2/4/6 Inhibitor PF-06873600 Alone or with Endocrine Therapy in Patients with Breast Cancer” (Clinical Cancer Research, 2025)
